d = 2'-deoxy (DNA); r = 2'-OH (RNA)
Key:
[1] = Thermal denaturation (Tm) of siRNA duplexes; type: physicochemical; conditions: for Tm: 7.5 mM phosphate buffer pH 7.0 containing 140 mM KCl, 1 μM strands, 40-95° C.
Experimental: Thermal denaturation studies of siRNA was carried out in phosphate buffer, pH 7.0, containing 140 mM KCl. UV absorbance was monitored at 260 nm in the temperature range from 40 to 95° C. using a Lambda 35 UV-Vis spectrophotometer equipped with a Peltier temperature programmer with a heating rate of 0.5° C./min. Samples (1 μM RNA) were denatured at 90° C. for 3 min followed by slow cooling to 27° C. prior to the measurements. Tm values were obtained from the maxima of the first derivatives of the melting curves. All Tm values given are the averages of three independent sets of experiments (±0.3° C. error range).

MG63 cells = assay: Fluorescence / confocal microscopy of cellular distribution in MG63 cells; type: cell-based, human; conditions: fluorescently labelled, transfection reagent free
Experimental: Cellular uptake experiments were performed by plating cells (1×10^4) in an 8 well chamber slide. At 70% confluency, the cells were transfected with 50 nM Cy3-cpRNA and incubated at 37° C. for 24 h. Control wells were left untreated. Each transfection was performed in triplicate. […] The slides were mounted using Vectashield mounting medium containing 4′, 6-diamidino-2-phenylindole (DAPI) (Vector Labs, Burlingame, Calif.) to stain the nuclei of cells.
MG63—human osteosarcoma cells were cultured in α-MEM (Sigma-Aldrich, Haverhill, UK) medium containing 10% FBS, 1% L-Glutamine, and 1% antibiotics (PeSt) at 37° C. with 5% CO2. One day prior to the siRNA treatment, 35,000 cells were plated per each well of a 24-well plate. On the experiment day, cells were replaced with 10% heat inactivated-FBS containing α-MEM medium with 1% L-Glutamine, and 1% antibiotics (PeSt). Fluorescently (Cy3) labelled CP-siRNA and nicked CP-siRNA having GAPDH targeting sequence (final concentration: 50 nM) was given to the each well. After 24 hours the cells were washed with PBS and fixed with 4% formaldehyde for 20 mins at room temperature and then washed twice with PBS. DAPI (1 ug/ml in PBS) was added to cells for 5 mins and then washed with PBS. The cells were then visualized in Nikon TiU at 20×+1.5× and analysed with the Nikon Imaging software.

GAPDH = GAPDH gene knockdown in MG63 cells by RT-PCR; type: cell-based, human; conditions: for GAPDH gene knockdown: 50 nM, 24 h
Experimental: At 70% confluency, a day prior to transfection, the cells were seeded at a density of 35 000 cells in a 24-well cell culture plate to achieve 60-80% confluence at the day of transfection. Cell penetrating siRNAs (cpRNAs) of different lengths were transfected at 50 nM concentrations with Magnet Assisted Transfection (MATra-si) reagent for siRNAs (IBA GmbH, Göttingen, Germany) according to the manufacturers' protocols. Briefly, the siRNA was mixed with MATra-si reagent composed of supermagnetic ironoxide nanoparticles and incubated for 20 min. A complex was formed which was added to the cells to be transfected. A strong magnetic force was applied beneath the cells for 15 min. This forced the complex to be drawn into the cells by the magnetic field, and as a result the siRNA was delivered directly into the cytosol. For carrier free transfection experiments, cpRNAs were simply added to cells lines MG63, HOB, HCT116, fibroblasts and keratinocytes at 50 nM concentrations. Cells were also transfected with negative control siRNA (scrambled sequence) and cells left untreated were taken as controls. Each transfection was performed in triplicate. Post transfection, cells were incubated for 24 hours.
For the experiments involving lysosomotropic agent chloroquine (CQ), CQ was first neutralized to pH 7.4 using 1 M NaOH prior to use. MG63 cells were transfected with dT2, dT5, dT8, (dT5)2, as(dT5), and bl(dT5) siRNA in presence or absence of 100 μM CQ or using MATra-si and incubated for 24 h. Similar experiments were performed for other cpRNAs namely, dA5, dT5, dG5, (dT5)2, rA5 and dC5. For the control experiment, cells were either left untreated or transfected with negative control siRNA (scrambled sequence). Each transfection experiment was performed in triplicate.
After performing transfection experiments for 24 h, 48 h and 72 h respectively, total RNA was isolated from cells by adding 500 μl of lysis buffer (Qiagen, Germany), followed by homogenization of cell lysates using QIAshredder (Qiagen, Germany). RNA was extracted from cell lysates by RNeasy Mini Kit (Qiagen, Germany). All RNA samples were treated with DNase using TURBO-DNAfree (Ambion, USA). Agilent 2100 BioAnalyzer (Agilent Technologies, Palo Alto, Calif.) was used to confirm high quality of all RNA samples, which reports an RNA Integrity Number (RIN) that takes into account the entire electrophoretic RNA trace produced in the analysis. A RIN of greater than or equal to seven indicates the RNA is suitable for high stringency applications.
cDNA synthesis was performed in triplicate using total RNA reverse transcribed using High Capacity cDNA reverse transcription kit (Applied Biosystems, USA), with non-template control added to ensure a lack of signal in assay background. Reactions were incubated on a 96-well Applied Biosystems 9800 Fast Thermal Cycler PCR System at 37° C. for 60 min followed by 95° C. for 5 min. The real-time PCR reactions were carried out with 10 μl of 2×TaqMan® Universal PCR Master Mix, no AmpErase® UNG (Applied Biosystems, USA), 9 μl diluted cDNA, and 1 μl of TaqMan gene specific assay mix in a 20 μl final reaction volume. Reference gene beta-actin (ACTB) (Applied Biosystems, USA) was selected as control for normalization of TaqMan data. The assay included a no-template control, a standard curve of five serial dilution points (in steps of 3-fold) of cDNA mixture. Probes specific for IFN-α (Hs01022060_m1), IFN-β (Hs01077958_s1), IFN-γ (Hs00985251_m1), ACTB(Hs01060665_g1) and GAPDH (Hs02758991_g1) were purchased from Applied Biosystems. The amplification was carried out using the 7500 Fast Real-Time PCR System (Applied Biosystems, USA) using a 40-cycle program. The 7500 software automatically calculates raw Ct (cycle threshold) values. Data from samples with a Ct value equal to or below 35 were further analyzed. […]

[2] = MG63 cells, MATra-si transfection
[3] = MG63 cells, carrier-free transfection

In the case of “dT5: GAPDH siRNA, sense SEQ ID NO: 3 with dT5 3′-overhang, antisense SEQ ID NO: 2 with dT2 (sense CCGAGCCACAUCGCUCAGATTTTT; antisense UCUGAGCGAUGUGGCUCGGTT; sense: sugars from the 5' end r19 d5, backbone not given here; antisense: sugars from the 5' end r19 d2, backbone not given here)”, the Tm [1] is reported as 80.6 °C, the “Δ Tm” value ([1]; Tm relative to canonical siRNA (dT2)) is reported as −0.6 °C and the “drop in Tm” value ([1]; as compared to canonical siRNA) is reported as “about 0.5 °C”. The cellular distribution (MG63 cells) was “perinuclear localization within cytosol”, the “GAPDH mRNA knockdown efficiency over time” value (GAPDH; MG63, 50 nM, 24, 48 and 72 h, cpRNA without transfection reagent vs canonical siRNA with transfection reagent) was “higher gene knockdown efficiency for over 72 hrs” and the “RNAi activity among different 5-nt candidates” value (GAPDH; MG63 cells, FIG. 2B) was “highest RNAi activity”. For the same substance, the “enhancement in activity compared to canonical siRNA” value (GAPDH; [2]) was 20% and the GAPDH gene knockdown (GAPDH; [3]) was 80%.
In the case of “dT2: Canonical GAPDH siRNA, sense SEQ ID NO: 1, antisense SEQ ID NO: 2, dTdT 3′-overhang on both strands (sense CCGAGCCACAUCGCUCAGATT; antisense UCUGAGCGAUGUGGCUCGGTT; sugars from the 5' end r19 d2, backbone not given here) [reference compound]”, the Tm [1] is reported as 81.2 °C, the cellular distribution (MG63 cells) is reported as “localized distribution to endosome” and the GAPDH gene knockdown (GAPDH; [2]) is reported as 60%. The GAPDH gene knockdown (GAPDH; [3]) was 28%.

From patent publication US20180265867A1, “NUCLEIC ACID MOLECULES WITH ENHANCED ACTIVITY” (priority 2015, published 2018)
